Assay results published in patent US10538495B2, “Modulators of indoleamine 2,3-dioxygenase” (GLAXOSMITHKLINE INTELLECTUAL PROPERTY DEVELOPMENT LIMITED, priority 2016, dated 2020).
Read-outs that look alike come from different tables or passages of the source.

Assays:
[1] = molecular target: T1, indoleamine 2,3-dioxygenase (IDO1) (Homo sapiens, UniProt P14902); assay: PBMC IDOi assay (kynurenine by mass spectrometry); assay type: cell-based; conditions: IFN-γ and LPS stimulated human PBMC, 2 days, kynurenine detected by mass spectrometry; read-out: PBMC pIC50 (converted)
T1 sequence (P14902 whole entry): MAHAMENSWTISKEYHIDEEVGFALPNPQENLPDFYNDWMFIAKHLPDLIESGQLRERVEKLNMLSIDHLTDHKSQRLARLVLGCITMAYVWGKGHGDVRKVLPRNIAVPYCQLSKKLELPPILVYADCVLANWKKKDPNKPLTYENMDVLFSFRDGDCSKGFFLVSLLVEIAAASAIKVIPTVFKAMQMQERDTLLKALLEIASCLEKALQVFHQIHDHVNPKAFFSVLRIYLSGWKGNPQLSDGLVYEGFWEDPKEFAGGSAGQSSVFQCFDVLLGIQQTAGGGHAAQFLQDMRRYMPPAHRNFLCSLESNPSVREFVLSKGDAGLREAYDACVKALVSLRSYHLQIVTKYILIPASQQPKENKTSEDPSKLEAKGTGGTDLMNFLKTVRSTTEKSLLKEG
Procedure: (§1) Brief descriptions of the cellular assays are provided following the table.
(§2) Compounds of the present invention were tested via high-throughput cellular assays utilizing detection of kynurenine via mass spectrometry and cytotoxicity as end-points. For the mass spectrometry and cytotoxicity assays, human peripheral blood mononuclear cells (PBMC) (PB003F; AllCells®, Alameda, Calif.) were stimulated with human interferon-γ (IFN-γ) (Sigma-Aldrich Corporation, St. Louis, Mo.) and lipopolysaccharide from Salmonella minnesota (LPS) (Invivogen, San Diego, Calif.) to induce the expression of indoleamine 2,3-dioxygenase (IDO1). Compounds with IDO1 inhibitory properties decreased the amount of kynurenine produced by the cells via the tryptophan catabolic pathway. Cellular toxicity due to the effect of compound treatment was measured using CellTiter-Glo® reagent (CTG) (Promega Corporation, Madison, Wis.), which is based on luminescent detection of ATP, an indicator of metabolically active cells.
(§3) In preparation for the assays, test compounds were serially diluted 3-fold in DMSO from a typical top concentration of 5 mM and plated at 0.5 μL in 384-well, polystyrene, clear bottom, tissue culture treated plates with lids (Greiner Bio-One, Kremsmünster, Austria) to generate 11-point dose response curves. Low control wells (0% kynurenine or 100% cytotoxicity) contained either 0.5 μL of DMSO in the presence of unstimulated (−IFN-γ/−LPS) PBMCs for the mass spectrometry assay or 0.5 μL of DMSO in the absence of cells for the cytotoxicity assay, and high control wells (100% kynurenine or 0% cytotoxicity) contained 0.5 μL of DMSO in the presence of stimulated (+IFN-γ/+LPS) PBMCs for both the mass spectrometry and cytotoxicity assays.
Frozen stocks of PBMCs were washed and recovered in RPMI 1640 medium (Thermo Fisher Scientific, Inc., Waltham, Mass.) supplemented with 10% v/v heat-inactivated fetal bovine serum (FBS) (Thermo Fisher Scientific, Inc., Waltham, Mass.), and 1× penicillin-streptomycin antibiotic solution (Thermo Fisher Scientific, Inc., Waltham, Mass.). The cells were diluted to 1,000,000 cells/mL in the supplemented RPMI 1640 medium. 50 μL of either the cell suspension, for the mass spectrometry assay, or medium alone, for the cytotoxicity assay, were added to the low control wells, on the previously prepared 384-well compound plates, resulting in 50,000 cells/well or 0 cells/well respectively. IFN-γ and LPS were added to the remaining cell suspension at final concentrations of 100 ng/ml and 50 ng/ml respectively, and 50 μL of the stimulated cells were added to all remaining wells on the 384-well compound plates. The plates, with lids, were then placed in a 37° C., 5% CO2 humidified incubator for 2 days.
Following incubation, the 384-well plates were removed from the incubator and allowed to equilibrate to room temperature for 30 minutes. For the cytotoxicity assay, CellTiter-Glo® was prepared according to the manufacturer's instructions, and 40 μL were added to each plate well. After a twenty minute incubation at room temperature, luminescence was read on an EnVision® Multilabel Reader (PerkinElmer Inc., Waltham, Mass.). For the mass spectrometry assay, 10 μL of supernatant from each well of the compound-treated plates were added to 40 μL of acetonitrile, containing 10 μM of an internal standard for normalization, in 384-well, polypropylene, V-bottom plates (Greiner Bio-One, Kremsmünster, Austria) to extract the organic analytes. Following centrifugation at 2000 rpm for 10 minutes, 10 μL from each well of the acetonitrile extraction plates were added to 90 μL of sterile, distilled H2O in 384-well, polypropylene, V-bottom plates for analysis of kynurenine and the internal standard on the RapidFire 300 (Agilent Technologies, Santa Clara, Calif.) and 4000 QTRAP MS (SCIEX, Framingham, Mass.). […]

[2] = molecular target: T1, indoleamine 2,3-dioxygenase (IDO1); assay: HeLa IDOi assay (kynurenine by mass spectrometry); assay type: cell-based; set-up: human epithelial HeLa cells (CCL-2; host or cells: HeLa cells stimulated with human IFN-γ; conditions: IFN-γ stimulated HeLa cells, 2 days, kynurenine detected by mass spectrometry; read-out: HeLa pIC50 (converted)
Procedure: as §1
as §2, with “epithelial HeLa” for “peripheral blood mononuclear”, “(CCL-2; ATCC®, Manassas, Va.)” for “(PBMC) (PB003F; AllCells®, Alameda, Calif.)”, “Mo.)” for “Mo.) and lipopolysaccharide from Salmonella minnesota (LPS) (Invivogen, San Diego, Calif.)”
as §3, with “(−IFN-γ) HeLa cells” for “(−IFN-γ/−LPS) PBMCs”, “(+IFN-γ) HeLa cells” for “(+IFN-γ/+LPS) PBMCs”
Frozen stocks of HeLa cells were washed and recovered in DMEM high glucose medium with HEPES (Thermo Fisher Scientific, Inc., Waltham, Mass.) supplemented with 10% v/v certified fetal bovine serum (FBS) (Thermo Fisher Scientific, Inc., Waltham, Mass.), and 1× penicillin-streptomycin antibiotic solution (Thermo Fisher Scientific, Inc., Waltham, Mass.). The cells were diluted to 100,000 cells/mL in the supplemented DMEM medium. 50 μL of either the cell suspension, for the mass spectrometry assay, or medium alone, for the cytotoxicity assay, were added to the low control wells, on the previously prepared 384-well compound plates, resulting in 5,000 cells/well or 0 cells/well respectively. IFN-γ was added to the remaining cell suspension at a final concentration of 10 nM, and 50 μL of the stimulated cells were added to all remaining wells on the 384-well compound plates. The plates, with lids, were then placed in a 37° C., 5% CO2 humidified incubator for 2 days.
Following incubation, the 384-well plates were removed from the incubator and allowed to equilibrate to room temperature for 30 minutes. For the cytotoxicity assay, CellTiter-Glo® was prepared according to the manufacturer's instructions, and 10 μL were added to each plate well. After a twenty minute incubation at room temperature, luminescence was read on an EnVision® Multilabel Reader (PerkinElmer Inc., Waltham, Mass.). For the mass spectrometry assay, 10 μL of supernatant from each well of the compound-treated plates were added to 40 μL of acetonitrile, containing 10 μM of an internal standard for normalization, in 384-well, polypropylene, V-bottom plates (Greiner Bio-One, Kremsmünster, Austria) to extract the organic analytes. Following centrifugation at 2000 rpm for 10 minutes, 10 μL from each well of the acetonitrile extraction plates were added to 90 μL of sterile, distilled H2O in 384-well, polypropylene, V-bottom plates for analysis of kynurenine and the internal standard on the RapidFire 300 (Agilent Technologies, Santa Clara, Calif.) and 4000 QTRAP MS (SCIEX, Framingham, Mass.). MS data were integrated using Agilent Technologies' RapidFire Integrator software, and data were normalized for analysis as a ratio of kynurenine to the internal standard. […]

[3] = tested on: conversion of T cells into CD4+FoxP3+ Tregs; conditions: co-culture of DCs and naïve CD4+CD25− T cells; cited from earlier work
PAN02 pancreatic cells = conditions: orally dosed, cited from earlier work

Row | IC50 [1] [nM] | IC50 [2] [nM] | Compound | conversion of T cells into CD4+FoxP3+ Tregs [3] | inhibition of tumor growth (PAN02 pancreatic cells; PAN02 syngeneic model, immunocompetent mice) | inhibition of tumor growth (PAN02 pancreatic cells; same tumor implanted in immune-deficient mice)
1 | 1.58 | 2.51 | Cc1cc(C)c(CC(=O)Nc2cc(-c3ccccc3-c3nn[nH]n3)ccc2SC(C)(C)C)c(C)c1 [Example 39, N-(4-(tert-butylthio)-2′-(2H-tetrazol-5-yl)-[1,1′-biphenyl]-3-yl)-2-mesitylacetamide] |  |  | 
2 | 20 | 31.6 | CC(C)(C)Sc1ccc(-c2ccccc2-c2nn[nH]n2)cc1NC(=O)Cc1ccc(Br)cc1 [Example 40, 2-(4-Bromophenyl)-N-(4-(tert-butylthio)-2′-(2H-tetrazol-5-yl)-[1,1′-biphenyl]-3-yl)acetamide] |  |  | 
3 | 12.6 | 50.1 | CC(C)(C)Sc1ccc(-c2ccccc2-c2nn[nH]n2)cc1Nc1nc(C(F)(F)F)ns1 [Example 43, N-(4-(tert-butylthio)-2′-(2H-tetrazol-5-yl)-[1,1′-biphenyl]-3-yl)-3-(trifluoromethyl)-1,2,4-thiadiazol-5-amine] |  |  | 
4 | 5010 | 6310 | Cc1ccc(CC(=O)Nc2cc(-c3ccccc3C#N)ccc2SC(C)(C)C)cc1 [Example 46, N-(4-(tert-butylthio)-2′-cyano-[1,1′-biphenyl]-3-yl)-2-(p-tolyl)acetamide] |  |  | 
5 | 501 | 501 | Cc1ccc(CC(=O)Nc2cc(-c3ccccc3C(N)=O)ccc2SC(C)(C)C)cc1 [Example 47, 4′-(tert-Butylthio)-3′-(2-(p-tolyl)acetamido)-[1,1′-biphenyl]-2-carboxamide] |  |  | 
6 | 63.1 | 15.8 | Cc1ccc(CC(=O)Nc2cc(-c3ccccc3-c3nnn(COP(=O)(O)O)n3)ccc2SC(C)(C)C)cc1 [Example 51, (5-(4′-(tert-Butylthio)-3′-(2-(p-tolyl)acetamido)-[1,1′-biphenyl]-2-yl)-2H-tetrazol-2-yl)methyl Dihydrogen Phosphate] |  |  | 
7 | 158 | 25.1 | Cc1ccc(CC(=O)Nc2cc(-c3ccccc3-c3nnnn3COP(=O)(O)O)ccc2SC(C)(C)C)cc1 [Example 52, (5-(4′-(tert-Butylthio)-3′-(2-(p-tolyl)acetamido)-[1,1′-biphenyl]-2-yl)-1H-tetrazol-1-yl)methyl Dihydrogen] |  |  | 
8 | 50.1 | 31.6 | Cc1ccc(CC(=O)Nc2cc(-c3ccccc3-c3nnn(COC(=O)C(C)(C)C)n3)ccc2SC(C)(C)C)cc1 [Example 55, (5-(4′-(tert-Butylthio)-3′-(2-(p-tolyl)acetamido)-[1,1′-biphenyl]-2-yl)-2H-tetrazol-2-yl)methyl pivalate] |  |  | 
9 | 20 | 31.6 | Cc1ccc(CC(=O)Nc2cc(-c3ccccc3-c3nnnn3COC(=O)C(C)(C)C)ccc2SC(C)(C)C)cc1 [Example 56, (5-(4′-(tert-butylthio)-3′-(2-(p-tolyl)acetamido)-[1,1′-biphenyl]-2-yl)-1H-tetrazol-1-yl)methyl Pivalate] |  |  | 
10 | 50.1 | 63.1 | Cc1ccc(CC(=O)Nc2cc(-c3ccccc3-c3nnn[nH]3)cnc2SC(C)(C)C)cc1 [Example 64, N-(5-(2-(1H-tetrazol-5-yl)phenyl)-2-(tert-butylthio)pyridin-3-yl)-2-(p-tolyl)acetamide] |  |  | 
11 | 25.1 | 39.8 | CC(C)(C)Sc1ncc(-c2ccccc2-c2nnn[nH]2)cc1NC(=O)Cc1ccc(C(F)(F)F)cc1 [Example 65, N-(5-(2-(1H-tetrazol-5-yl)phenyl)-2-(tert-butylthio)pyridin-3-yl)-2-(4-(trifluoromethyl)phenyl)acetamide] |  |  | 
12 | 7.94 | 10 | Cc1ccc(CC(=O)Nc2cc(-c3ccccc3-c3nnn[nH]3)cnc2SC(C)(C)C)c(C)c1 [Example 66, N-(5-(2-(1H-tetrazol-5-yl)phenyl)-2-(tert-butylthio)pyridin-3-yl)-2-(2,4-dimethylphenyl)acetamide] |  |  | 
13 | 12.6 | 100 | CC(C)(C)Sc1ncc(-c2ccccc2-c2nnn[nH]2)cc1NC(=O)Cc1ccccc1C(F)(F)F [Example 67, N-(5-(2-(1H-tetrazol-5-yl)phenyl)-2-(tert-butylthio)pyridin-3-yl)-2-(2-(trifluoromethyl)phenyl)acetamide] |  |  | 
14 |  |  | NS(=O)(=O)NCCNc1nonc1C(=NO)Nc1ccc(F)c(Br)c1 [INCB204360] | blocked the conversion | significant dose-dependent inhibition of tumor growth | without effect
